Source: patent publication US11512053B2, “Arginine methyltransferase inhibitors and uses thereof” (priority 2013, dated 2022)

Target: full-length human PRMT6 (Flag- and His-tagged) (Homo sapiens, UniProt Q96LA8)
Experiment: PRMT6 Biochemical Assay (3H-SAM Flashplate, peptide substrate)
Details: single experiment or average of multiple experiments; read-out: Biochemical IC50 PRMT6
Method in brief: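 Radiometric methyltransferase readout: tritium transfer onto a biotin-tagged histone H4 36-50 peptide bearing monomethyl K44 (75 nM), captured on streptavidin Flashplates after stopping with 400 uM unlabeled SAM. Enzyme is baculovirus-expressed Flag-PRMT6-His at 1 nM, given 30 min with compound at room temperature before adding 200 nM 3H-SAM and 250 nM cold SAM (pH 7.6 Bicine, 2% DMSO). Percent inhibition relative to max/min (1 mM SAH) controls, curve-fit to IC50.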

Sequence of full-length human PRMT6 (Flag- and His-tagged) (Q96LA8 with tags, fused parts or gaps): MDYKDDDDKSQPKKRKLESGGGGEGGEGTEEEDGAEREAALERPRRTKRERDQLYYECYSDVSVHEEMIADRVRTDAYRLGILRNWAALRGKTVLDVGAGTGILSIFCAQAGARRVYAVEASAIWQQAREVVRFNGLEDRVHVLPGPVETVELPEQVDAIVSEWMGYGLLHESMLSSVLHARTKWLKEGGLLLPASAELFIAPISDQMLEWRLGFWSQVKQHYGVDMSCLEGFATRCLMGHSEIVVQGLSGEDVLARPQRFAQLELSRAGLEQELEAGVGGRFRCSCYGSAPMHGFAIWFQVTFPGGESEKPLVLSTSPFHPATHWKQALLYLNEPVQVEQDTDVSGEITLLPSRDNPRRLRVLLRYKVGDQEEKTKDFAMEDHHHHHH

`CNCCN(C)Cc1c[nH]nc1C#Cc1ccccc1` [Compound 3] showed an IC50 of 20 nM.
